Measurements published in patent publication US6716574B2, “Osp-C derived peptide fragments” (Dako A/S, priority 1996, dated 2004).

What was measured:
Assay type in all cases: binding, human
[1] = tested on: IgM antibodies to OspC in sera from patients; experiment: Indirect streptavidin ELISA for IgM antibodies against carboxy-terminal OspC deca-peptide (peptide ELISA)
Protocol: Indirect Streptavidin ELISA for IgM Antibodies against Carboxy-terminal OspC Deca-peptide (Peptide ELISA)
Flat-bottom microdilution plates (Maxisorb; Nunc, Roskilde, Denmark) were coated with 100 μl of streptavidin (ZYMED, S. Avidinii) 2.5 μg/ml in citrate buffer (pH 5) and incubated overnight at 4° C. The plates were washed four times a one minute with phosphate buffered saline (PBS) containing 0.5 M NaCl and 0.1% (vol/vol) Tween 20 (pH 7.2), 100 μl of the biotinylated synthetic peptide
(prodiluted in PBS containing 0.37 M NaCl, 0.5% (vol/vol) Tween 20, and 1% (wt/vol) milk powder (pH 7.0)) was added to the wells and the plates were incubated overnight at 4° C. The plates were washed four times a one minute with PBS containing 0.5 M NaCl and 0.1% (vol/vol) Tween 20 (pH 7.2), and 100 μl of test serum diluted 1:200 in PBS containing 0.7 M NaCl, 0.1% (vol/vol) Tween 20, and 1% (wt/vol) milkpowder (pH 7, 2) was added to the wells and incubated for 2 hours at 20° C. on a rocker platform. The plates were washed four times à one minute with PBS containing 0.5 M NaCl and 0.1% (vol/vol) Tween 20 (pH 7.2), and 100 μl of peroxidase conjugated rabbit anti-human IgM (code P215; Dako-patts, Copenhagen, Denmark) diluted 1:1000 in PBS containing 0.5% Tween 20 and 1% milkpowder (pH 7.4) was added to the wells and incubated for 1 h at 20° C. The plates were washed four times à one minute with PBS containing 0.5 M NaCl and 0.1% (vol/vol) Tween 20 (pH 7.2), and 200 μl of the substrate o-phenylenediamine (0.33 mg/ml; Kem-En-Tec, Denmark, tablets of 10 mg) in citrate buffer (pH 5) with 0.04% (vol/vol) H2O2 was added to each well. After 15 minutes protected from light, the enzymatic reaction was stopped by the addition of 50 μl of 3 M H2SO4. The optical density (OD) at 492 nm was read spectrophotometrically on an Immuno Reader, Easy reader EAR 400 AC, SLT Labinstruments, AUSTRIA. Samples were tested in duplicate and retested if the two OD values differed more than 10% from the mean. To eliminate plate-to-plate and day-to-day variations, a reference serum pool based on seven western blot positive sera were included on every plate for construction of a standard dilution curve with a two fold dilution ranging from 1:200 to 1:6400. The OD value of every sample was adjusted to this standard curve. Positive and negative control sera were included on every plate. The positive control sera were diluted 1:200, 1:400 and 1:800 on every plate to check for parallelism between the standard reference curve and the dilution curve of the positive control sera. […]

[2] = tested on: IgG antibodies in Lyme borreliosis sera; experiment: IgG antibodies to the C-terminal decapeptide in Lyme borreliosis sera
[3] = tested on: IgM in serum from a patient with established neuroborreliosis; experiment: Western blot with the decapeptide as serodiagnostic test antigen; settings: 10 ug peptide on nitrocellulose, NB serum 1:100, preliminary experiments
Protocol: After three further washes in TRIS buffered saline with Tween, antibody reactive peptide was detected with alkaline phosphatase-coupled rabbit anti-human immune globulin M (DAKO, Denmark; cat. no. 337). The conjugate was diluted 1:1000 in TRIS buffered saline with 1% BSA and the NC membrane was incubated with colour substrate (BCIP and NBT; 1:500) for 10 minutes.

[4] = tested on: IgG reactive with OspC in patient sera; experiment: IgG rOspC ELISA combined with IgG flagellum ELISA
[5] = tested on: IgM antibodies to OspC in sera from patients; experiment: Indirect ELISA for IgM antibodies to full-length and truncated recombinant OspC (rOspC ELISA); settings: for frequency (%) of positive sera, rOspCfl ELISA: IgM; for diagnostic sensitivity for IgM: set of preliminary tests
Protocol: Indirect ELISA for IgM Antibodies to Full-length and Truncated Recombinant OspC (rOspC ELISA)
Flat-bottom microdilution plates (Maxisorb; Nunc, Roskilde, Denmark) were coated with 100 μl of rOspC diluted in 0.05 M bicarbonate pH 9.6 for 1 hour at 20° C. on a rocker platform and thereafter overnight at 4° C. The optimum coating concentration was defined as the antigen dilution resulting in the highest ratio of the optical density (OD) between a positive and a negative control serum (P/N ratio). The plates were washed four times à one minute with PBS containing 0.5 M NaCL, and 0.1% (vol/vol) Tween 20 (pH 7.2) and unspecific protein binding was blocked with 100 μl 3% (wt/vol) milk powder in PBS for 1 hour. The plates were washed four times à one minute with PBS containing 0.5 M NaCL, and 0.1% (vol/vol) Tween 20 (pH 7.2). 100 μl of serum diluted 1:200 in PBS containing 0.1% (vol/vol) Tween 20, 0.02% NaN3 and 1% (wt/vol) milk powder was added to the wells and incubated for 2 h at 20° C. The plates were washed four times à one minute with PBS containing 0.5 M NaCL, and 0.1% (vol/vol) Tween 20 (pH 7.2) and 100 μl peroxidase conjugated rabbit anti-human immunoglobulin M (IgM) (Dakopats, Copenhagen, Denmark, code P-215) diluted 1:1000 in PBS pH 7.4 with 0.05% (vol/vol) Tween 20 and 1% (wt/vol) milk powder. After the incubation for 1 h at 20° C. the plates were washed four times à one minute with PBS containing 0.5 M NaCL, and 0.1% (vol/vol) Tween 20 (pH 7.2) and 200 μl of the substrate o-phenylenediamine (0.41 mg/ml; Sigma) in citrate buffer (pH 5) with 0.04% (vol/vol) H2O2) was added to each well. After 15 minutes protected from light, the enzymatic reaction was stopped by the addition of 50 μl of 3M H2SO4. The optical density (OD) at 492 nm was read spectrophotometrically (Immuno Reader, Easy reader EAR 400 AC—SLT Labinstruments, AUSTRIA). Samples were tested in duplicate and retested, if the two OD values differed more than 10% from the mean. To eliminate plate-to-plate and day-to-day variations, a reference serum pool based on seven western blot positive sera were included on every plate for construction of a standard dilution curve with a two fold dilution ranging from 1:200 to 1:6400. The OD value of every sample was adjusted to this standard curve. Positive and negative control sera were included on every plate. The positive control sera were diluted 1:200, 1:400 and 1:800 on every plate to check for parallelism between the standard reference curve and the dilution curve of the positive control sera.
The diagnostic cutoff OD was adjusted to be 98% specific for an IgM assay on the basis of serum samples from 100 healthy danish blood donors, and was 0.230 for the IgM assay.
In a preliminary setup, rOspCt was used in the above-described rOspC ELISA. Sera from 47 patients with EM, 50 with NB, 30 with ACA and 29 with syphilis were tested against rOspCt.
The capability of an immunological agent according to the present invention to react with sera from patients in various stages of Lyme borreliosis was evaluated against that of recombinant OspC derived from B. garinii and against conventional flagellum ELISAs (performed as described in Hansen K. et al. (1991) and Hansen K. et al. (1988)). These flagellum assays (testing for IgM and IgG antibodies to native B. burgdorferi flagellum) are commercially available, a μ-capture ELISA (DAKO, Denmark code K006), and an indirect IgG ELISA (DAKO, Denmark code K416). Both assays use flagella purified from strain DK1 belonging to the genospecies of B. afzelii. The ELISAs were performed according to the instructions of the manufacturer, and the results were expressed as optical density (OD) values. In both assays the diagnostic cut-off level was adjusted to a specificity of 98% based on the examination of 100 blood donors.

In the case of “6-aminohexanoic acid-Pro-Val-Val-Ala-Glu-Ser-Pro-Lys-Lys-Pro [Peptide]”, the “OD titer compared with the rOspCfl ELISA” value ([1]; EM and NB sera, IgM, FIGS. 1-4) is reported as “significantly higher”, the “frequency (%) of positive sera, Peptide ELISA” value (from here on “frequency (%) … Peptide ELISA”) ([1]; EM sera (n = 80), IgM, cutoff OD 0.460) is reported as “n = 26 (32.5%)” and the “Peptide IgM negative and Flagellum IgM negative” value ([1]; EM, n = 80) is reported as “n = 44 (55.00%)”. For the same molecule, the “Peptide IgM negative and Flagellum IgM positive” value ([1]; EM, n = 80) was “n = 10 (12.50)”, the “Peptide IgM positive and Flagellum IgM negative” value ([1]; EM, n = 80) was “n = 6 (7.50%)” and the “Peptide IgM positive and Flagellum IgM positive” value ([1]; EM, n = 80) was “n = 20 (25.00%)”. The “Peptide IgM negative” value ([1]; EM, n = 80, all sera) was “n = 54 (67.5%)”, the “Peptide IgM positive” value ([1]; EM, n = 80, all sera) was “n = 26 (32.5%)” and the “frequency (%) … Peptide ELISA” value ([1]; Early Lyme borreliosis (EM and NB) sera (n = 181), IgM) was “n = 72 (39.8%)”. For the same molecule, the “frequency (%) … Peptide ELISA” value ([1]; NB sera (n = 101), IgM) was “n = 46 (45.5%)”, the “Decapeptide IgM negative and Flagellum IgM negative” value ([1]; NB, n = 101) was “n = 25 (24.75%)” and the “Decapeptide IgM negative and Flagellum IgM positive” value ([1]; NB, n = 101) was “n = 30 (29.70%)”. For the same molecule, the “Decapeptide IgM positive and Flagellum IgM negative” value ([1]; NB, n = 101) was “n = 12 (11.88%)”, the “Decapeptide IgM positive and Flagellum IgM positive” value ([1]; NB, n = 101) was “n = 33 (32.67%)” and the “Decapeptide IgM negative” value ([1]; NB, n = 101, all sera) was “n = 55 (54.5%)”. The “Decapeptide IgM positive” value ([1]; NB, n = 101, all sera) was “n = 46 (45.5%)”, the “sensitivity of the peptide ELISA relative to the rOspCfl ELISA” value ([1]; detecting early Lyme borreliosis (stage 1 and 2)) was “approximately 86%” and the “increase of overall sensitivity for IgM when adding peptide ELISA results to flagellum ELISA results” value ([1]; first stage (EM)) was 7.5%. The “accuracy (ROC plot) compared with the rOspCfl ELISA” value ([1]; patients suffering from NB, FIG. 6) was “more accurate” and the “increase of overall sensitivity for IgM when adding peptide ELISA results to flagellum ELISA results” value ([1]; second stage (NB)) was 12%.

In the case of “NH2-Pro-Val-Val-Ala-Glu-Ser-Pro-Lys-Lys-Pro-COOH (H-PVVAESPKKP-OH; listed as Borrelia garinii) [SEQ ID NO: 1, C-terminal decapeptide of B. burgdorferi sensu lato OspC]”, the “Lyme borreliosis sera comprising IgG antibodies to the peptide” value [2] is reported as “only few” and the “usability as serodiagnostic test antigen in western blot” value [3] is reported as “can be used as a serodiagnostic test antigen”.

B1: rOspCfl: full-length recombinant OspC from Borrelia garinii strain DK6 (SEQ ID NO: 3), six-His fusion protein (protein, listed as Borrelia garinii)
chain: MKKNTLSAILMTLFLFISCNNSGGDSASTNPDESAKGPNLTVISKKITDSNAFLLAVKEVEALLSSIDELSKAIGKKIKNDGTLDNEANRNESLIAGAYEISKLITQKLSVLNSEELKEKIKEAKDCSEKFTTKLKDSHAELGIQSVQDDNAKKAILKTHGTKDKGAKELEELFKSLESLSKAAQAALTNSVKELTNPVVAESPKKP
modifications: six-His tag
B1 was tested, and the “improvement on adding IgG rOspC ELISA results to IgG flagellum ELISA results” value [4] was “no significant improvement”, the “frequency (%) of positive sera, rOspCfl ELISA” value (from here on “frequency (%) … rOspCfl ELISA”) ([5]; EM sera (n = 80), B. garinii rOspCfl, cutoff OD 0.230) was “n = 45 (43.8%)” and the “rOspCfl IgM negative and Flagellum IgM negative” value ([5]; EM, n = 80) was “n = 38 (47.50%)”. For the same molecule, the “rOspCfl IgM negative and Flagellum IgM positive” value ([5]; EM, n = 80) was “n = 7 (8.75%)”, the “rOspCfl IgM positive and Flagellum IgM negative” value ([5]; EM, n = 80) was “n = 12 (15.00%)” and the “rOspCfl IgM positive and Flagellum IgM positive” value ([5]; EM, n = 80) was “n = 23 (28.75%)”. For the same molecule, the “rOspCfl IgM negative” value ([5]; EM, n = 80, all sera) was “n = 45 (56.25%)”, the “rOspCfl IgM positive” value ([5]; EM, n = 80, all sera) was “n = 35 (43.75%)” and the “frequency (%) … rOspCfl ELISA” value ([5]; Early Lyme borreliosis (EM and NB) sera (n = 181)) was “n = 94 (46.4%)”. The “frequency (%) … rOspCfl ELISA” value ([5]; NB sera (n = 101), B. garinii rOspCfl) was “n = 49 (48.5%)”, the “rOspCfl IgM negative and Flagellum IgM negative” value ([5]; NB, n = 101) was “n = 25 (24.75%)” and the “rOspCfl IgM negative and Flagellum IgM positive” value ([5]; NB, n = 101) was “n = 26 (25.74%)”. The “rOspCfl IgM positive and Flagellum IgM negative” value ([5]; NB, n = 101) was “n = 12 (11.88%)”, the “rOspCfl IgM positive and Flagellum IgM positive” value ([5]; NB, n = 101) was “n = 37 (36.63%)” and the “rOspCfl IgM negative” value ([5]; NB, n = 101, all sera) was “n = 52 (51.5%)”. The “rOspCfl IgM positive” value ([5]; NB, n = 101, all sera) was “n = 49 (48.5%)”, the “increase of overall diagnostic sensitivity for IgM when adding rOspCfl ELISA results to flagellum ELISA results” value ([5]; first stage of Lyme borreliosis (EM)) was 15% and the “diagnostic sensitivity for IgM” value ([5]; first stage of Lyme borreliosis) was 44%. For the same molecule, the “increase of overall diagnostic sensitivity for IgM when adding rOspCfl ELISA results to flagellum ELISA results” value ([5]; second stage of Lyme borreliosis (NB)) was 12% and the “diagnostic sensitivity for IgM” value ([5]; second stage of Lyme borreliosis) was 48%.
